The subject of experiment [1] is Capan-1 xenograft tumor. The experiment is described as follows: Suppression of tumor growth by combinatory treatment of pentoxifylline and gemcitabine. Particulars: pentoxifylline alone 100 mg/kg/d i.p., 28 days. Format: in vivo, BALB/c nu/nu mice. From the text: (§1) Female BALB/c nu/nu mice (5 to 6 weeks old) were purchased from Orient Bio Inc. (Seongnam City, Gyeonggi-do, Korea), and were raised in a germ-free animal breeding facility at the Catholic University of Korea, Catholic Medical Center (Seoul, Korea). The animals were raised in a standard state, and supplied with food and water ad libitum. The animals were taken care of in accordance with the guidelines of the Institutional Animal Care and Use Committee (IACUC) of School of Medicine of the Catholic University of Korea (Approval Number; CUMC-2010-0141-01). For induction of tumor, Capan-1 cells were harvested after the trypsin treatment, 5×10^6 living cells were subcutaneously injected into the right flanks of the mice. After tumor was induced, the mice were sacrificed, tumor samples were obtained, and experiments were performed according to each Example to be described below.
The tumor size (mm^3) was calculated by using the equation: V=(a×b^2)/2 (a is the largest diameter of tumor, and b is the smallest diameter of tumor). The relative tumor size was normalized with respect to the volume when a drug treatment of Capan-1 xenograft tumor was initiated. At least three mice per group were used, and the results were presented as an average standard error (SE). The statistical significance was determined by using a 2-sample t-test inferred from the Microsoft Excel 2007. […]

In experiment [2] the test system is TGF-β1. Put plainly: Immunohistochemical staining of TGF-β1 in tumor sections. Format: in vivo, mice.
From the text: as §1, with “below. […] Immunohistochemical staining for α-SMA, TGF-β1, and CTGF was performed using Dako Envision Detection System ([…], DAKO). Paraffin-embedded, formalin fixed samples were cut into sections having a thickness of 3 μm, deparaffinized and rehydrated. For antigen retrieval, a pressure cooker of a microwave method was used as a target retrieval solution ([…], DAKO) for 5 minutes (pH 9.0), and cooled at room temperature for 20 minutes. […]” for “below.”

The next experiment concerns α-SMA. The experiment is described as follows: Immunohistochemical staining of α-SMA in tumor sections. The format is in vivo, mice. Particulars: pentoxifylline for two weeks; p<0.001.
From the text: as §1, with “below. […] Immunohistochemical staining for α-SMA, TGF-β1, and CTGF was performed using Dako Envision Detection System ([…], DAKO). Paraffin-embedded, formalin fixed samples were cut into sections having a thickness of 3 μm, deparaffinized and rehydrated. For antigen retrieval, a pressure cooker of a microwave method was used as a target retrieval solution ([…], DAKO) for 5 minutes (pH 9.0), and cooled at room temperature for 20 minutes. […]” for “below.”

Experiment [3] deals with TGF-β1. The experiment is described as follows: Total and active TGF-β1 in tumor homogenate (ELISA). The conditions noted are these: ELISA of tumor homogenate. The format is in vivo, mice.
From the text: as §1
Frozen tumors were cut into small pieces, and homogenized using Precellys 24 homogenizer (Bertin Technologies) in Tissue Extraction Reagent I (Invitrogen) containing protease inhibitor cocktail (Complete Mini, Roche). […] Total protein concentrations were determined by BCA protein assay kit (Pierce). Total and active TGF-β1 concentrations were determined using TGF-β1 ELISA kit (eBioscience) according to the manufacturer's protocol.
In general terms: ELISA stands for enzyme-linked immunosorbent assay.

In a further experiment the test system is collagen type I. Put plainly: Collagen type I content in tumor sections (immunofluorescence). The format is in vivo, mice.
From the text: as §1

In a further experiment the test system is mouse TGF-β1. The experiment is described as follows: TGF-β1 mRNA expression in tumor (quantitative real-time RT-PCR). The conditions noted are these: pentoxifylline versus control; direction not stated at b84. The format is in vivo.
From the text: as §1, with “After tumor was induced, the mice were sacrificed, tumor samples were obtained, and experiments were performed according to each Example to be described below.” left out
For the quantitative real-time RT-PCR analysis, total RNAs were isolated from tumor homogenates using the Trizol method and quantified by Nanodrop spectrophotometer (ND-1000). After 1 μg of total RNAs was reverse transcribed from the tissue with AccuPower CycleScript RT PreMix (Bioneer), a quantitative real-time polymerase chain reaction was performed using the LightCycler 480 Real-Time PCR System II (Roche) with SYBR Green Master mix (Roche) according to the manufacturer's recommendation. […]
All expression data were normalized using the GAPDH expression. The relative gene expression was quantified using the ΔΔCt method (2-ΔΔCt).
(In qPCR the cycle at which signal appears reflects the starting amount.)

The subject of experiment [4] is mouse COLIA1 (collagen type I, alpha 1). The experiment is described as follows: Collagen type I mRNA expression in tumor (quantitative real-time RT-PCR). Format: in vivo. The conditions noted are these: pentoxifylline pretreatment for two weeks; P<0.02.
From the text: as §1, with “After tumor was induced, the mice were sacrificed, tumor samples were obtained, and experiments were performed according to each Example to be described below.” left out
In order to confirm the mRNA expression level of collagen type I, RT-PCR was performed. For the quantitative real-time RT-PCR analysis, total RNAs were isolated from tumor homogenates using the Trizol method and quantified by Nanodrop spectrophotometer (ND-1000). After 1 μg of total RNAs was reverse transcribed from the tissue with AccuPower CycleScript RT PreMix (Bioneer), a quantitative real-time polymerase chain reaction was performed using the LightCycler 480 Real-Time PCR System II (Roche) with SYBR Green Master mix (Roche) according to the manufacturer's recommendation. […]

The next experiment relates to CD31. The experiment is described as follows: Blood vessel density by CD31 immunostaining in tumor sections. Particulars: with versus without pentoxifylline. Format: in vivo, BALB/c nu/nu mice.
From the text: as §1

A further experiment has as its system CTGF. Put plainly: Immunohistochemical staining of CTGF in tumor sections. The format is in vivo, mice. The conditions noted are these: pentoxifylline for two weeks; p<0.05.
From the text: as §1, with “below. […] Immunohistochemical staining for α-SMA, TGF-β1, and CTGF was performed using Dako Envision Detection System ([…], DAKO). Paraffin-embedded, formalin fixed samples were cut into sections having a thickness of 3 μm, deparaffinized and rehydrated. For antigen retrieval, a pressure cooker of a microwave method was used as a target retrieval solution ([…], DAKO) for 5 minutes (pH 9.0), and cooled at room temperature for 20 minutes. […]” for “below.”

In experiment [5] the test system is Capan-1 xenograft tumor. Put plainly: Suppression of tumor growth by doxorubicin or liposomal doxorubicin after pentoxifylline pretreatment. The format is in vivo, BALB/c nu/nu mice. Particulars: doxorubicin 8 mg/kg i.v., with or without pentoxifylline pretreatment 100 mg/kg/d for two weeks; normalized to volume at treatment start; P<0.05.
From the text: as §1

Each structure is given as a SMILES string.

With `CC(=O)CCCCn1c(=O)c2c(ncn2C)n(C)c1=O` [pentoxifylline, 1-(5-oxohexyl)-3,7-dimethylxanthine], the “anti-tumor effects compared to the control group of saline treatment” value with Capan-1 xenograft tumor [1] was “anti-tumor effects did not appear”. In the experiment with TGF-β1 [2], the “effect on TGF-β1 immunohistochemical staining in the tumor tissue” value is listed as “no effects”. Moreover, the “reduction of immunostaining of α-SMA in the tumor sections” value with α-SMA turned out to be 66%. In the experiment on TGF-β1 [3], the “effect on active TGF-β1 level in the tumor tissue” value is listed as “no effects” and the “effect on total TGF-β1 level in the tumor tissue” value was “no effects”. In addition, in the experiment with collagen type I (i.p. for two weeks, P<0.05), the “collagen content at high dose (100 mg/kg) versus low dose (50 mg/kg)” value is listed as “slightly lower”. Moreover, the “collagen type I contents in central and marginal regions of the tumor sections” value with collagen type I (pentoxifylline i.p. for two weeks versus saline) is on record as “reduced”. In addition, in the experiment on mouse TGF-β1, the “TGF-β1 mRNA expression” value is recorded as “big difference”. Besides, in [4], the “reduction of mRNA expression of collagen I compared to the control group” value amounted to 72%. Also, the “blood vessel density exhibited by CD31 immunostaining” value in the experiment with CD31 is “no difference between groups”. Besides, the “reduction of immunostaining of CTGF in the tumor sections” value with CTGF amounted to 25%.
For the compound `COc1cccc2c1C(=O)c1c(O)c3c(c(O)c1C2=O)C[C@@](O)(C(=O)CO)C[C@@H]3O[C@H]1C[C@H](N)[C@H](O)[C@H](C)O1` [doxorubicin], in the experiment with Capan-1 xenograft tumor [5], the “relative tumor size at day 23” value was found to be 1.52.

Values taken from US20150374702A1 (CATHOLIC UNIVERSITY INDUSTRY ACADEMIC COOPERATION FOUNDATION, priority 2013, published 2015).
